Reference: patent publication US4921865A, “Aminoacylates of glycerol acetal” (Societe de Conseils de Recherches et d'Applications …, priority 1987, dated 1990)
pIC50: −log10 of the molar value.

Legend:
[1] = test system: platelets (PAF induced platelet aggregation); experiment: inhibition of PAF-induced platelet aggregation in platelet rich plasma; assay type: cell-based, New Zealand rabbits; settings: Oryctolagus cuniculus; rabbit platelet rich plasma, 2.5 nM PAF
Description: 1--INHIBITION OF THE PLATELETS AGGREGATION ON NEW ZEALAND RABBITS
The experimentation was conducted on platelets with plasma of New Zealand rabbits.
Blood samples were taken from auricular artery and placed in a citrate buffer (3.8 %; pH 7.4); blood was further centrifugated for 15 mn at 1200 RPM.
The tested sample was prepared in DMSO, then poured on platelets rich plasma for 1 mn, then a dose of 2.5 nM of PAF was added.
The determination is made on a Cronolog Coultronics apparatus which determines the transmission percentage corresponding to the maximum height of the peak before the desaggregation.
The percentage of variation of the inhibition with respect to the transmission percentage is calculated (control: pure DMSO).
This method was described in details in LABORATORY INVESTIGATIONS, Vol. 41, No. 3, p. 275, 1979, JEAN-PIERRE CAZENAVE, Dr. MED. , JACQUES BENVENISTE, Dr. MED., AND J. FRASER MUSTARD, M.D., "Aggregation of Rabbits Platelets by Platelet-Activating Factor Is Independent of the Release Reaction and the Arachidonate Pathway and Inhibited by Membrane-Active Drugs".
Five tests made on 5 different rabbits allowed us to calculate the IC50 of the various compounds using the linear regression test.

[2] = target: T1, [^3 H]-PAF binding, platelet membrane (Oryctolagus cuniculus, UniProt G1TEI7); experiment: inhibition of specific [3H]-PAF binding to rabbit platelet membranes; settings: 1 nM [3H]-PAF, 0°C 1 h 30
T1 construct: Platelet membrane homogenate was stored at -80° C; from tissue; host or cells: rabbit platelets (membrane homogenate from lysed washed platelets)
T1 sequence (G1TEI7 1-342): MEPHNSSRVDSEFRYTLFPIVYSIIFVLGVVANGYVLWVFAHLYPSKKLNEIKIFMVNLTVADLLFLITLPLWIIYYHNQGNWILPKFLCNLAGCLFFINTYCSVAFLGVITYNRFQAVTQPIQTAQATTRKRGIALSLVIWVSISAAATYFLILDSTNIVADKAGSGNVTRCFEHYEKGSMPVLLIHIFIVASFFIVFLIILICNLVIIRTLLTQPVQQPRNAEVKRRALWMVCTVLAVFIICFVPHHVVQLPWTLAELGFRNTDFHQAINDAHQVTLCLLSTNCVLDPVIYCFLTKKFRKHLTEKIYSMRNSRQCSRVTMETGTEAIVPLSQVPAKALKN
Description: Synthetic tritiated [^3 H]-PAF used was in ethanol solution with a specific activity of 59.5 ci/mmols. Unlabelled PAF and lyso-PAF were solubilized in ethanol solution and stored at -80° C. The compounds were solubilized in DMSO.
Rabbit whole blood (6 volumes) was drawn from the central ear artery into 1 volume of ACD solution (citric acide 1.4 g, sodium citrate 2 5 g, Dextrose 2 g per 100 ml of H2 O) and centrifuged at 150 g for 15 minutes. The platelet-rich plasma (PRP) was carefully removed and centrifuged for 15 minutes at 1000 g. The platelet pellet was then washed 3 times: twice in Tris-HCl buffer 10 mM, pH 7.4 containing NaCl 150 mM, MgCl2 5 mM, EDTA 2 mM and the last time in the same but sodium-free buffer.
The platelet pellet was resuspended in this latter buffer, quickly frozen in liquid nitrogen and slowly thawed at room temperature for at least 3 times as described by T. Y. Shen et al. The lysed platelets were centrifuged at 100,000 g for 30 minutes in a BECKMAN model L8.55 ultra centrifuge (rotor 50.2 Ti). Platelet membrane homogenate was stored at -80° C. and used within two weeks without noticeable changes in PAF-acether binding characteristics.
Protein contain was determined by the Lowry method using bovine serum albumine as standard.
60 to 100 μg of membrane proteins were added to a final volume of 1 ml in plastic tubes containing 1 nM [^3 H]-PAF in Tris-HCl 10 mM pH 7 buffer containing 0.025 % bovine serum albumin and incubated with or without unlabelled PAF or PAF-antagonists. The incubation was carried out for 1 h 30 at 0° C. The bound [^3 H]-PAF was separated from the free [^3 H]-PAF by immediate filtration through whatman GF/C glass fiber filters under vacuum (Brandel system). The reaction and the filters were washed 3 times with 5 ml of ice-cold buffer. The filters were then placed into polyethylene phials filled up with 10 ml of liquid scintillation fluid and the radioactivity was measured by an LKB β counter with 45% efficiency.
The non specific binding was determined in the presence of 10^-6 M of unlabelled PAF. The specific binding was calculated by substracting non specific binding from the total binding. The inhibition by compounds on the specific [^3 H]-PAF binding was determined as the percent inhibition by the equation: [formula]

[3] = test system: polymorphonuclear leukocytes (PMNs); experiment: antagonism of polymorphonuclear leukocyte aggregation induced by PAF; assay type: cell-based, rat (Wistar); settings: PAF 10^-8, rat PMNs
Description: Polymorphonuclear leukocytes (PMNs) were obtained as described by A. W. Ford-Hutchinson et al. (Br - J. Pharmacol. 76, 367-371, 1982). Cell suspensions ([…]) were prepared from peritoneal exudates obtained after a 5 ml IP injection of sodium caseinate 12% (w/v) to male Wistar rats, 300 g body weight.
After centrifugation, cells were washed with Hanks and resuspended in MEM/Hepes 30 mM medium (PM=7.4) at a concentration of 10^7 cells/ml. Cytochalasin B (5 μg/ml) was added 10 minutes before trigering aggregation to amplify the PMNs aggregation. The light transmittance through the cell suspension (400 μl) was measured under a 900 R/mn magnetic stirring, with a dual beam aggregometer (Chronolog Corp. Coultronics.)
The control cuvet is the cell suspension diluted to 20% of the cell count with MEM and the difference represents 100% transmittance. Change in transmittance, which occurs when PAF is added, was continuously recorded.
Drugs solubilized in MEM/Hepes were added (4 μl) to PMNs suspension 2 minutes before PAF addition.

[4] = test system: PAF-induced [Ca^2+ ]i mobilization, washed rabbits platelets; experiment: inhibition of intracytosolic free calcium mobilization induced by PAF in washed rabbit platelets; assay type: cell-based; settings: PAF 2×10^-9 M; resting about 150 nM
Description: Blood was taken from the auricular artery of the rabbit on citric acid/sodium citrate/dextrose and anticoagulan and the washed platelets were prepared according to Ardlie et al., Brit. J. Pharmacology, 19, 7-17, 1970. They were incubated with acetylsalicylic salt (100 μM, 30 minutes) to avoid thromboxane induced aggregation. They were then loaded with the fluorescent calcium indicator dye quin 2 by incubation with quin 2 aceto-methylester (15 μM in DMSO, 20 minutes at room temperature) which penetrates the cell membrane and after hydrolysed is trapped in the platelet. Drugs were preincubated with platelets for 15 minutes simultaneously to CP/CPK mixture which destroys secreted ADP.
Fluorescent measurement was then performed (excitation λ=339 nm, emission λ=494 nm) after PAF addition to platelet suspension. The fluorescence intensity is proportional to the cytosolic free calcium level [Ca^2+ ]i which can be quantified as described by Tsien et al., J. Cell Biol., 94, 325-334, 1982.

Compound	pIC50 [1]	other results
CCCCCCCCCCCCCCCCCC1(C)OCC(COC(=O)CCC[n+]2ccccc2)O1 (stereo not drawn) [Example 1, 2-heptadecyl 2-methyl 4-[4'-(N-pyridinium)butyryloxymethyl]-1,3-dioxolan chloride]	5.66	pIC50 [2]: 6.35
CCCCCCCCCCCCCCCCCC1(C)OCC(COC(=O)CCC[n+]2cccc3ccccc32)O1 (stereo not drawn) [Example 2, 2-heptadecyl 2-methyl 4-[4'(N-quinolinium)butyryloxymethyl]1,3-dioxolan chloride]	5.92	
CCCCCCCCCCCCCCCCCC1(C)OCC(COC(=O)CCC[n+]2ccsc2)O1 (stereo not drawn) [Example 3, 2-heptadecyl 2-methyl 4-[4'-(N-thiazolinium)butyryloxymethyl]1,3-dixolan chloride]	4.67	
CCCCCCCCCCCCCCCCCC1OCC(COC(=O)CCC[n+]2ccccc2)O1 (stereo not drawn) [Example 4, 2-heptadecyl 4-[4'-(N-pyridinium)butyryloxymethyl] 1,3-dioxolan chloride]	5.15	
CCCCCCCCCCCCCCCCCC1OCC(COC(=O)CCC[n+]2cccc3ccccc32)O1 (stereo not drawn) [Example 5, 2-heptadecyl 4[4'-(N-quinolinium)butyryloxymethyl] 1,3 dioxalan chloride]	5.51	
CCCCCCCCCCCCCCCCCC1(CCC)OCC(COC(=O)CCC[n+]2ccccc2)O1 (stereo not drawn) [Example 6, 2-heptadecyl 2-(n-propyl 4-(4'-(N-pyridinium)butyryloxymethyl]1,3-dioxolan chloride]	5.52	
CCCCCCCCCCCCCCCCCC1(C)OCC(COC(=O)CCCC[n+]2ccccc2)O1 (stereo not drawn) [Example 7, 2-heptadecyl 2-methyl 4-[5'-(N-pyridinium)pentanoyloxymethyl]1,3-dioxolanchloride]	5.30	
COc1cc(C2(C)OCC(COC(=O)CCC[n+]3ccccc3)O2)cc(OC)c1OC (stereo not drawn) [Example 8, 2-(3,4,5-trimethoxyphenyl) 2-methyl 4-[4'-(N-pyridinium)butyryloxymethyl] 1,3-dioxolan chloride]	4.95	
CCCCCCCCCCCCCCCCCC1(C)OCC(COC(=O)CCCCCCCCCC[n+]2ccccc2)O1 (stereo not drawn) [Example 12, 2-heptadecyl 2-methyl 4-[11'-(N-pyridiniumundecanoyloxymethyl) 1,3-dioxolan bromide]	4.51	
CCCCCCCCCCCCCCCCCC1(CCC)OCC(COC(=O)CCCCC[n+]2ccccc2)O1 (stereo not drawn) [Example 13, 2-heptadecyl 2-(n-propyl) 4-[6'-(N-pyridinium)hexanoylmethyl] 1,3-dioxolanbromide]	5.76	
CCCCCCCCCC1(C)OCC(COC(=O)CCCCC[n+]2ccccc2)O1 (stereo not drawn) [Example 14, 2-nonyl 2-methyl 4-[6'-(N-pyridiniumhexanoyloxymethyl] 1,3-dioxolan bromide]	5.84	pIC50 [2]: 6.21
CCCCCCCCCCCCCCCCOCC(COP(=O)([O-])OCC[N+](C)(C)C)OC(C)=O (stereo not drawn) [PAF, reference compound]		aggregation of PMNs induced [3]: 55 to 70%; [Ca^2+ ]i level after stimulation [4]: 400 to 600 nM
